Consider one molecule from PMC7939474 (The Journal of Biological Chemistry, 2021).

In general, Kd refers to the concentration at which binding is half-saturated. Read a high Kd as weaker binding.

This experiment has as its target T1, VcINDY WT (Vibrio cholerae, UniProt Q9KNE0).
T1 construct: gene VC_A0025
In words: biochemical.

For the molecule `O=C(O)CCC(=O)O` [succinate], the dissociation constant Kd is 4.3 ± 1.5 mM.
